The values that follow come from patent US5225436A, “Aryl substituted naphthalene derivatives” (Schering Corporation, priority 1991, dated 1993).

Counter-ions that a name gives are not always drawn. Like-named read-outs stand apart in the source and are kept apart here.

A word on the inhibition: it is the percentage by which the read-out fell short of the control.

Experiment [1] has as its system arachidonic acid induced mouse ear inflammation. Kind of experiment: Arachidonic acid mouse ear test. Format: in vivo, mouse (Charles River, female, CD, (SD) BR). The following applies: 1 mg/ear, topical, 30 minutes prior to AA challenge. How it is done: Charles River, female, CD, (SD) BR mice, 6 weeks old, are caged 8/group and allowed to acclimate 1-3 weeks prior to use.
Arachidonic acid (AA) is dissolved in reagent grade acetone (2 mg/.01 ml) and stored at -20° C. for a maximum of 1 week prior to use. Inflammatory reactions are induced by applying […] of AA to both surfaces of one ear ([…] total).
Test drugs are dissolved in either reagent grade acetone or aqueous ethanol (only if insoluble in acetone) at the same doses selected by Opas et al., Fed. Proc. 43, Abstract 2983, p. 1927 (1984) and Young et al., J. Invest. Dermatol. 82, pp. 367-371 (1984). These doses are employed to ensure maximum responses and to overcome any difference in topical absorption which could occur with any drug applied in an aqueous ethanol vehicle. The test drug is applied 30 minutes prior to challenge with AA.
The severity of the inflammation is measured as a function of increased ear weight. A 6 mm punch biopsy is removed 1 hour after AA challenge and weighed to the nearest 0.1 mg. Mean ± standard error and all possible comparisons are made via Duncan's Multiple Range Statistic.

The test system of experiment [2] is SRS-A / leukotriene release from antigen-challenged, sensitized guinea pig lung. Kind of experiment: Inhibition of SRS-A (leukotriene) release from antigen-challenged, sensitized guinea pig lung. Format: cell-based. To be noted: Cavia porcellus; Dose 50 μm. The method in brief: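 Chopped sensitized guinea pig lung fragments (~400 mg) preincubated with or without compound 12 min at 37° C in Tyrode's with 10 mM cysteine, then challenged with 20 μg/ml ovalbumin (final) for 15 min. Ethanol-extracted supernatant leukotrienes measured by [3H]LTC4 RIA (55% LTD4 cross-reactivity); % inhibition versus the same lung without compound.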

Another experiment addresses T1, 5-lipoxygenase (Mus musculus, UniProt P48999).
T1 construct: The IL-3-dependent murine mast cell clone, MC-9, was used to test the effects; endogenous in cells; host or cells: MC-9 (IL-3-dependent murine mast cell clone)
T1 sequence (P48999 1-674): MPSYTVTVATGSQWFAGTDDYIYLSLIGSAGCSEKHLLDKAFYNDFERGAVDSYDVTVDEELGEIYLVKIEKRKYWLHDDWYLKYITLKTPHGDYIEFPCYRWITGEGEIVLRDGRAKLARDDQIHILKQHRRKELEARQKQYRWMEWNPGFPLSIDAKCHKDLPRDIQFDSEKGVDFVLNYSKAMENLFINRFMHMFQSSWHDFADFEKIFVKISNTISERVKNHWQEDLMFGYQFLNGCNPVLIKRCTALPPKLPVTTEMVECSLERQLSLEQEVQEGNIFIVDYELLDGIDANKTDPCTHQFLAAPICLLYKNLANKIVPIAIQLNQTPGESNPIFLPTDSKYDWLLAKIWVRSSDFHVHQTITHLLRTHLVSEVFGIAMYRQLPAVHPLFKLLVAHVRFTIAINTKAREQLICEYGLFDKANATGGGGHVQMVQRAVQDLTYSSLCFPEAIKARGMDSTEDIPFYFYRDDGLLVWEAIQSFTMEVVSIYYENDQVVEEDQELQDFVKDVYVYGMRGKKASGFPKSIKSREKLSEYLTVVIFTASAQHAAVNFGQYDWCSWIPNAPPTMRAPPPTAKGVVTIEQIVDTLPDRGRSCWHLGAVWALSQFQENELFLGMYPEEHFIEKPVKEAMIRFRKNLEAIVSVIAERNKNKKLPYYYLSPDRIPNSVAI
Kind of experiment: 5-Lipoxygenase assay (murine mast cell clone MC-9). It counts as cell-based. To be noted: MC9, 5 min, MC-9 cell. Here is the method: The IL-3-dependent murine mast cell clone, MC-9, was used to test the effects of representative compounds of the invention on lipoxygenase activity. The MC-9 cell line was grown in suspension culture (0.4 to 1.2×10^6 cells/ml) in RPMI 1640 medium (Gibco) with 10% fetal bovine serum (Hyclone) and 2-5% conconavalin-A conditioned supernatant (Musch et. al., (1985) Prostagandins 29, 405-4307. Cells were harvested, washed twice by centrifugation, and resuspended in a Ca^++ -free HEPES buffer (25 mM HEPES, 125 mM NaCl, 2.5 mM KCl 0.7 mM MgCl2, 0.5 mM EGTA and 10 mM glucose at pH 7.4).
MC-9 cells (0.39 ml at 7.5×10^6 cells/ml) were preincubated with dimethylsulfoxide (DMSO) vehicle with or without test compound (1 ul) for 4 minutes then incubated for 5 minutes with [^14 C] arachidonic acid (Amersham, 59 Ci/mole) at a 9 uM final concentration, and A23187 (Calbiochem) at a 1 uM final concentration was added in 10 ul of water:ethanol (9:1). The reaction was stopped by addition of methanol (0.4 ml), and cellular debris was removed by centrifugation. Aliquots (250 ul) of the incubations were run on a Waters two pump HPLC system fitted with a Waters C18, 10 u 8×100 mm u-Bondapak radial compression column and C18 "Guard Pak". The column was initially eluted at 3 ml/min with water:methanol:acetic acid (67:33:0.08) containing 1 mM EDTA adjusted to pH 6.0 with ammonium hydroxide (Pump A). At 4 minutes, a linear gradient to reach 100% methanol (Pump B) at 9 minutes was established. Between 13 and 14 minutes, methanol was exchanged for the initial eluting solvent and by 19 minutes the column had been reequilibrated for the next sample. The effluent was analyzed by a continuous flow radioactivity monitor (model ROMONA-D) interfaced with a Hewlett Packard Lab Automation System for quantitation of radioactive products. These were predominantly leukotriene C4 (LTC4) which eluted at 6 minutes, and 5-hydroxyeicosatetraenoic acid (5-HETE) which eluted at 11 minutes (Musch et. al., supra).

For experiment [3], the system named is anaphylactic bronchospasm (antigen-induced SRS-A mediated bronchoconstriction). Put plainly: Inhibition of anaphylactic bronchospasm in sensitized guinea pigs. The following applies: Cavia porcellus, iv, 0.25 h, Dose 10 mpk, read-out: % Inhibition of anaphylactic bronchospasm. It counts as in vivo, guinea pig. How it is done: The anti-allergy method of this invention is identified by tests which measure a compound's inhibition of anaphylactic bronchospams-in sensitized guinea pigs having antigen-induced SRS-A mediated bronchoconstriction. Allergic bronchospams was measured in actively sensitized guinea pigs by a modification of the procedure of Konzett and Rossler, Arch. Exptl. Pathol. Pharmakol., 194, pp. 71-74 (1940). Male Hartley guinea pigs were sensitized with 5 mg ovalbumin injected ip and 5 mg injected sc in 1 ml saline on day 1 and 5 mg ovalbumin injected ip on day 4. The sensitized animals were used 3-4 weeks later. To measure anaphylactic bronchospasm, sensitized guinea pigs were fasted overnight and the following morning were anesthetized with 0.9 ml/kp ip dialurethane. The trachea and jugular vein were cannulated and the animals were ventilated by a Harvard rodent respirator. A side arm to the tracheal cannula was connected to a Harvard pressure transducer to obtain a continuous measure of intratracheal pressure. An increase in intratracheal pressure was taken as a measure of bronchoconstriction. Each guinea pig was injected iv with 1 mg/kg propranolol, 5 mg/kg indomethacin and 2 mg/kg mepyramine given together in a volume of […]. Fifteen minutes later, the animals were challenged with antigen (0.5 percent ovalbumin) delivered as an aerosol generated from a DeVilbiss Model 65 ultrasonic nebulizer and delivered through the tracheal cannula for 30 seconds. Bronchoconstriction was measured as the peak increase in intratracheal pressure occurring within 15 minutes after antigen challenge.

Regarding `CC1(C)C(c2ccc(O)c(O)c2)=C(O)C(=O)c2c(O)cc(O)cc21` [3-(3,4-dihydroxyphenyl)-2,6,8-trihydroxy-4,4-dimethyl-1(4H)-naphthalenone], the “inhibition (increased ear weight)” value in experiment [1] was determined as 68%. The inhibition at 50 µM in experiment [2] was found to be 81%. Moreover, on 5-lipoxygenase (read-out: % Inhibition 5-HETE), the inhibition at 5 µM is 43% and the inhibition at 50 µM was 95%.
`CC1(C)C(c2ccc(O)c(O)c2)=CC(=O)c2c(O)cc(O)cc21` [3-(3,4-dihydroxyphenyl)-6,8-dihydroxy-4,4-dimethyl-1(4H)-naphthalenone]: in experiment [1] (listed as 3-(3,4-dihydroxyphenyl)-6,8-dihydroxy-4,4-dimethyl-1(4H)-naphthalenone), the “inhibition (increased ear weight)” value was 60%. Besides, in experiment [3], the inhibition in vivo at 10 mg/kg came out at 17%. The inhibition at 50 µM in experiment [2] stood at 77%. Moreover, at 5-lipoxygenase (read-out: % Inhibition 5-HETE), the inhibition at 2 µM worked out at 52% and the inhibition at 5 µM came out at 76%. The inhibition at 2 µM on 5-lipoxygenase (read-out: % Inhibition LTC4) was found to be 33%.
For `COc1cc(O)c2c(c1)C(C)(C)C(c1ccc(O)c(O)c1)=CC2=O` [3-(3,4-dihydroxyphenyl)-8-hydroxy-6-methoxy-4,4-dimethyl-1(4H)-naphthalenone], the “inhibition (increased ear weight)” value in experiment [1] turned out to be 65%. In experiment [2], the inhibition at 50 µM was 43%. Besides, on 5-lipoxygenase (read-out: % Inhibition 5-HETE), the inhibition at 5 µM stood at 60%.
As to `COc1cc(OC)c2c(c1)C(C)(C)C(c1ccc(OC)c(OC)c1)CC2=O` (stereo not drawn) [3-(3,4-dimethoxyphenyl)-6,8-dimethoxy-4,4-dimethyl-3 4-dihydro-1(2H)-naphthalenone], in experiment [1], the “inhibition (increased ear weight)” value came to 50%. For the same compound, in experiment [3], the inhibition in vivo at 10 mg/kg was 0%. For the same compound, the inhibition at 50 µM amounted to 62% in experiment [2], 100% on 5-lipoxygenase (read-out: % Inhibition 5-HETE) and 99% at 5-lipoxygenase (read-out: % Inhibition LTC4). Further, the inhibition at 5 µM was determined as 29% on 5-lipoxygenase (read-out: % Inhibition 5-HETE) and 36% at 5-lipoxygenase (read-out: % Inhibition LTC4).
In the case of `CC1(C)C(c2ccc(O)c(O)c2)=CC(=O)c2c(O)cc(O)cc21` [trisodium salt of 3(3 4-dihydroxy-phenyl)-6,8-dihydroxy-4,4-dimethyl-1(4H)-naphthalenone], the “inhibition (increased ear weight)” value in experiment [1] is given as 90%.
